Assay results taken from publication PMC3422259, “Additive Mixture Effects of Estrogenic Chemicals in Human Cell-Based Assays Can Be Influenced by Inclusion of Chemicals with Differing Effect Profiles” (PLoS ONE, 2012).

Assays:
yeast estrogen screen = tested on: yeast estrogen screen; parameters: method as in PMID 19499261; settings: cited from earlier work
MCF-7 cells [1] = assay: Estrogenicity assay, mitogenic endpoint (ESCREEN); settings: ESCREEN
T47D-KBluc cells = assay: cells; settings: ERLUX
MCF-7 cells [2] = assay: Modulation studies (ESCREEN only): effect of potential modulators on the response evoked by a reference mixture of estrogens (REFmix); format: cell-based, human; settings: for Modulation of the REFmix effect (in words): ESCREEN; for Observed modulation: ESCREEN response to REFmix (Mixture 3d, ca. 50% effect), screening, one experiment
Source text: Modulation studies comprised screening of individual modulators in low power experiments accompanied by parallel testing of an equimolar mixture of all modulators. This combination of low power screening and mixture testing provides the opportunity to assess a high number of chemicals (16 in this case) without a prohibitive amount of experimental effort. In this case the effects of 16 modulators could be evaluated using a total of 19 experimental plates (16 for screening and 3 for mixture testing).
To normalize for small changes in the absolute value of the positive control and the control response to the selected REFmix concentration, the response evoked by the REFmix control on each plate was defined as the 50% effect and all modulator study results are normalized to that value.
A mixture of modulators (MODmix) was also tested and was composed with a fixed ratio of equimolar concentrations, since the activity of each modulator was not known at the time of designing the mixture.
In these modulator studies, we examined 16 single chemicals (listed in Table 7) and an equimolar mixture of all 16 components for their ability to modulate the effects of a reference mixture (REFmix) which contained 14 food additives and contaminants (Table 1, Mixture 3d). […] Single chemicals were tested individually in single experiments (screening) and then a mixture composed using a fixed ratio of equal molarities was subjected to repeated testing.
Figure 5 Results of modulation studies. […] Experimental results are shown as grey circles representing each replicate (duplicate testing within the assay) and obtained in three independent (A) or one (B–Q) experiment (s). Experimental results were normalized by setting the value observed for the REFmix alone, the concentration of which was selected to evoke a […] of ca. 50%, to 0.5. The positive control values (black circles, eight replicates per experimental plate, 25 nM estradiol) are indicated adjacent to the y-axis. […] A black line indicates a LOESS spline fit to the data (A–Q) and a grey line indicates linear regression fit to the data for individual modulators (B–Q). A vertical dotted line is drawn at a mixture concentration of 1.6 µM (A) or at the concentration of each modulator present at that mixture concentration (0.1 uM, B–Q). Visual inspection of the individual modulator results (B–Q) was used to identify possible modulation, i.e. when the experimental data appears to deviate from the linear regression, or when the linear regression is not horizontal, and when the magnitude of the modulation is outside the variation expected in the assay.

Row | SMILES | Modulation of the estrogenicity of estradiol or a ternary mixture of estradiol, estrone and estriol (in words) (yeast estrogen screen) | Modulation of the REFmix effect (in words) (MCF-7 cells [2]) | Observed modulation (MCF-7 cells [2]) | also measured
1 | Nc1ccc([N+](=O)[O-])cc1[N+](=O)[O-] [2,4-dinitroaniline] | negative modulation | – | – | –
2 | CCOC(=O)c1ccccc1C(=O)OCC [DEP, Di ethyl phthalate] | – | no indication of negative modulation | None | Signs of toxicity (in words) (MCF-7 cells [1]): None; Signs of estrogenicity: Active at concentration (MCF-7 cells [1]; ‘Active’ = positive signal clearly distinguishable from assay variability and noise): Active at 10 µM or higher; Estrogenicity when tested alone (in words) (T47D-KBluc cells): estrogenic; Concentration at which estrogenic activity seen (T47D-KBluc cells; and above): 0.1 to 1 µM
3 | C[S+](C)[O-] [DMSO] | no effect | – | – | –
4 | [Cl][Hg][Cl] [HgCl2, Mercury chloride] | no effect | no indication of negative modulation | None | Signs of estrogenicity (in words) (MCF-7 cells [1]; chemical screened as potential modulator, tested alone): None; Signs of toxicity: Possible toxicity at concentration (MCF-7 cells [1]; decrease in value for treated wells below vehicle controls, assignment not certain): Possible toxicity at 10 µM and greater
5 | C[C@@H]1C[C@@H]([C@H](O)CC2CC(=O)NC(=O)C2)C(=O)[C@@H](C)C1 [cycloheximide, reference compound] | negative modulation | – | – | –
